Read-outs that look alike come from different tables or passages of the source.
What was measured:
[1] = tested on: endogenous TFEB; assay: TFEB nuclear translocation, immunocytochemistry high-content imaging; assay type: cell-based
[2] = tested on: endogenous TFE3; assay: TFE3 nuclear translocation, immunocytochemistry high-content imaging; assay type: cell-based
[3] = tested on: SH-SY5Y cells; note: reference of the scale not given here
[4] = tested on: SH-SY5Y cells; assay: AK (adenylate kinase) release ToxiLight cytotoxicity assay; note: reference of the scale not given here
[5] = tested on: SH-SY5Y cells; assay: Nuclear count from microscopy images (cellular growth and toxicity); note: reference of the scale not given here
[6] = PKIS2 primary screening, DQ Red BSA intensity
[7] = PKIS2 primary screening, DQ Red BSA spot count

Structure (SMILES)	TFEB % ([1]; PKIS2 primary screening) [%]	TFE3 % ([2]; PKIS2 primary screening) [%]	DQ Intensity ([3]; PKIS2 primary screening)	DQ Spot ([3]; PKIS2 primary screening)	AK ([4]; PKIS2 primary screening)	Nuclear Count ([5]; PKIS2 primary screening)	DQ Intensity [3, 6]	DQ Spot [3, 7]	TFEB % ([1]; PKIS2 primary screen) [%]	TFE3 % ([2]; PKIS2 primary screen) [%]	DQ Intensity ([3]; PKIS2 primary screen, DQ Red BSA intensity)	DQ Spot ([3]; PKIS2 primary screen, DQ Red BSA spot count)	AK ([4]; PKIS2 primary screen)	Nuclear Count ([5]; PKIS2 primary screen)
Cc1ccc(F)c(C(=O)Nc2cccc(-c3nn4ccccc4c3-c3ccnc(Nc4cccc(F)c4)n3)c2)c1F [UNC10225076A]	2.83	6.05	103.33	125.97	111.27	118.77	–	–	–	–	–	–	–	–
Cc1ccccc1COc1cc(-n2cnc3cc(Cl)ccc32)sc1C(N)=O [UNC10225491A]	9.14	6.85	119.27	99.65	190.42	71.39	–	–	–	–	–	–	–	–
O=c1cc(N2CCOCC2)nc2n(Cc3ccccc3F)ccn12 [UNC10225231A]	4.37	8.12	110.36	111.39	121.63	97.25	–	–	–	–	–	–	–	–
COc1ccc2cc(-c3nc(-c4ccccc4C(C)C)[nH]c3-c3ccncc3)ccc2c1 [UNC10225291A]	11.56	9.24	–	–	85.35	105.82	102.38	102.77	–	–	–	–	–	–
CN1C(=O)C(Nc2cc(Cl)c(O)c(Cl)c2)=C(c2ccc(Cl)cc2)C1=O [UNC10225212A]	3.71	7.81	–	–	103.32	107.72	96.22	97.02	–	–	–	–	–	–
COc1cccc(-n2cnc3c(N)ncnc32)c1 [UNC10225454A]	7.17	8.30	95.23	104.69	83.60	128.34	–	–	–	–	–	–	–	–
O=c1cc(N2CCOCC2)nc2n(Cc3cccc4ccccc34)ccn12 [UNC10225439A]	8.17	9.76	73.77	88.56	77.38	128.21	–	–	–	–	–	–	–	–
Nc1ncnc2occ(-c3ccc4c(c3)CCN4C(=O)Cc3cc(F)ccc3F)c12 [UNC10225000A]	2.84	4.51	–	–	111.48	124.09	134.29	108.59	–	–	–	–	–	–
[2H]C([2H])(c1cccc(C(F)(F)F)c1C)n1ccn2c(=O)nc(N3CCOCC3)cc12 [UNC10243860A]	4.33	12.75	104.50	118.55	87.88	110.69	–	–	–	–	–	–	–	–
COC(=O)c1cccc(NC(=O)NCCNc2ccnc(Nc3ccc(F)cc3)n2)c1 [GSK1379883]	8.27	3.78	–	–	105.04	115.63	102.62	95.44	–	–	–	–	–	–
O=C(NCCCN1CCOCC1)c1cccc(Nc2nccc(Nc3ccc(Oc4ccccc4)cc3)n2)c1 [GW663929]	4.62	16.30	–	–	108.46	103.04	88.80	80.91	–	–	–	–	–	–
Cc1occc1-c1nc(N)c(OC[C@@H](N)Cc2c[nH]c3ccccc23)cc1-c1cc2c(C)n[nH]c2cn1 [UNC10225217A]	6.02	15.99	96.09	101.21	91.49	82.67	–	–	–	–	–	–	–	–
COc1ccc(Nc2nccc(N3CCC(NC(=O)C(C)c4ccc(Cl)cc4)CC3)n2)cc1 (stereo not drawn) [GSK1379812]	5.92	16.53	–	–	91.65	97.15	134.37	89.99	–	–	–	–	–	–
Cc1n[nH]c2ccc(-c3cc(OC[C@@H](N)Cc4ccccc4)cnc3-c3ccoc3)cc12.O=C(O)C(F)(F)F.O=C(O)C(F)(F)F [UNC10225447A]	5.41	18.99	66.58	65.23	97.39	74.49	–	–	–	–	–	–	–	–
CCc1nc(-c2cccc(N(C)S(=O)(=O)c3ccccc3)c2)c(-c2ccnc(Nc3ccc(N4CCN(C(C)=O)CC4)nc3)n2)s1 [UNC10225205A]	7.99	16.25	90.69	101.49	111.97	89.51	–	–	–	–	–	–	–	–
O=C(Nc1c(F)cccc1F)c1cc(C(=O)c2ccccc2F)c[nH]1 [UNC10225351A]	–	–	–	–	–	–	–	–	3.75	7.96	115.15	113.72	106.59	134.69
Cc1ccc(-c2cc(-c3c[nH]nc3-c3ccccn3)ccn2)cc1 [UNC10225125A]	3.15	5.68	–	–	116.20	147.86	86.68	93.68	–	–	–	–	–	–

Structure (SMILES)	TFEB % ([1]; PKIS2 primary screening) [%]	TFE3 % ([2]; PKIS2 primary screening) [%]	DQ Intensity ([3]; PKIS2 primary screening)	DQ Spot ([3]; PKIS2 primary screening)	AK ([4]; PKIS2 primary screening)	Nuclear Count ([5]; PKIS2 primary screening)	DQ Intensity [3, 6]	DQ Spot [3, 7]	TFEB % ([1]; PKIS2 primary screen) [%]	TFE3 % ([2]; PKIS2 primary screen) [%]	DQ Intensity ([3]; PKIS2 primary screen, DQ Red BSA intensity)	DQ Spot ([3]; PKIS2 primary screen, DQ Red BSA spot count)	AK ([4]; PKIS2 primary screen)	Nuclear Count ([5]; PKIS2 primary screen)
Cc1nnc(-c2ccc(C)c(-c3ccc(C(=O)Nc4ccc(NS(C)(=O)=O)cc4)cc3)c2)o1 [UNC10225285A]	4.26	14.74	105.08	99.25	85.18	90.38	–	–	–	–	–	–	–	–
COc1ccc(Nc2nccc(N3CCC(NC(=O)c4cccc(NC(C)=O)c4)C3)n2)cc1 (stereo not drawn) [GSK1379732]	5.92	6.22	–	–	83.81	135.73	114.89	106.49	–	–	–	–	–	–
CCn1c(-c2cccnc2O)nc2cnccc21 [UNC10225114A]	10.78	9.51	101.68	98.93	77.22	103.96	–	–	–	–	–	–	–	–
COc1cc(Nc2ncc3c(C)nc(-c4cc5ccccc5[nH]4)n3n2)cc(OC)c1OC [UNC10225084A]	3.01	14.67	112.41	111.83	112.96	82.05	–	–	–	–	–	–	–	–
Fc1ccc(-c2nc[nH]c2-c2ccncc2)cc1 [UNC10225418A]	7.46	16.61	–	–	94.96	56.56	103.88	114.99	–	–	–	–	–	–
FC(F)(F)c1ccc(-c2cc(-c3c[nH]nc3-c3ccccn3)ccn2)cc1 [UNC10225241A]	3.57	6.11	–	–	109.99	106.44	101.49	108.48	–	–	–	–	–	–
CN1CCN(CCNc2nc3ccc(Oc4ccc(NC(=O)Nc5cc(C(F)(F)F)ccc5F)cc4)cc3[nH]2)CC1 [GW768504]	4.72	12.94	–	–	155.92	72.38	103.13	113.95	–	–	–	–	–	–
Cn1cncc1C(=O)NC1CCN(c2ccnc(Nc3ccc(F)cc3)n2)C1 (stereo not drawn) [GSK1379717]	3.86	10.47	–	–	113.98	85.90	84.19	97.80	–	–	–	–	–	–
Cc1ccc(C)c(NC(=O)NCCNc2ccnc(Nc3ccc(F)cc3)n2)c1 [GSK1379878]	8.11	7.01	–	–	103.06	85.48	136.83	104.85	–	–	–	–	–	–
Nc1nccc(-c2ccc3c(N)n[nH]c3c2)n1 [GSK1034945]	3.25	14.89	–	–	117.83	141.53	84.11	101.09	–	–	–	–	–	–
CCCc1ccc(S(=O)(=O)NC2CCN(c3ccnc(Nc4ccc(F)cc4)n3)C2)cc1 (stereo not drawn) [GSK1379715]	6.97	11.31	–	–	100.57	97.10	80.29	105.29	–	–	–	–	–	–
COC(=O)c1cccc(NC(=O)NC2CCN(c3ccnc(Nc4ccc(OC)cc4)n3)C2)c1 (stereo not drawn) [GSK1379746]	6.50	11.39	–	–	99.00	105.57	97.94	97.45	–	–	–	–	–	–
Clc1ccc(-c2nn3ncccc3c2-c2ccnc(Nc3ccc4c(c3)OCCO4)n2)cc1 [UNC10225358A]	8.16	11.64	88.44	98.66	157.53	125.14	–	–	–	–	–	–	–	–
Clc1ccc(-c2cc(-c3c[nH]nc3-c3ccccn3)ccn2)cc1 [UNC10225057A]	5.33	9.30	–	–	69.86	99.07	80.85	100.06	–	–	–	–	–	–
Cc1cccc(Nc2nc(N[C@H]3CCCC[C@H]3N)ncc2C(N)=O)c1.Cl [UNC10225280A]	7.12	21.69	129.29	106.20	87.17	90.29	–	–	–	–	–	–	–	–
CNc1nc(-c2ccc3c(N)n[nH]c3c2)cc(N2C[C@@H](C(=O)Nc3ccccc3)CC[C@H]2C)n1 [GSK2298859]	6.90	12.86	–	–	105.92	105.37	117.75	109.70	–	–	–	–	–	–
CSc1nn2c(=O)cc(N3CCOCC3)nc2n1Cc1cccc(C(F)(F)F)c1C [UNC10243881A]	6.63	9.67	80.81	106.13	100.35	93.06	–	–	–	–	–	–	–	–

Source: article PMC9851200, “Multiparameter phenotypic screening for endogenous TFEB and TFE3 translocation identifies novel chemical series modulating lysosome function” (Autophagy, 2022)
